The results in this text go back to US11041009B2, “Glucose responsive insulin comprising a tri-valent sugar cluster for treatment of diabetes” (Merck Sharp & Dohme Corp., priority 2017, dated 2021).

One test has as its target T1, human IR(B) (Homo sapiens, UniProt P06213).
T1 construct: expressed in transfected cells
Description: Insulin Receptor Phosphorylation Assay (MSD pIR assay; Methods A and B). Format: cell-based. The settings on record: Method B: IR phosphorylation assay, 384-well with automated liquid dispense; CHO cells expressing human IR(B); read-out: IR Activation IP†. As for the experimental part:
Insulin Receptor Phosphorylation Assays were performed as follows.
Cells were harvested and frozen in aliquots for use in the MSD pIR assay. Briefly, the frozen cells were plated in either 96-well (40,000 cells/well, Method A) or 384-well (10,000 cells/well, Method B) clear tissue culture plates and allowed to recover. IOC molecules at the appropriate concentrations were added and the cells incubated for 8 min at 37° C. The media was aspirated and chilled MSD cell lysis buffer was added as per MSD kit instructions. The cells were lysed on ice for 40 min and the lysate then mixed for 10 minutes at room temperature. The lysate was transferred to the MSD kit pIR detection plates. The remainder of the assay was carried out following the MSD kit recommended protocol.

The target of test [1] is T2, Human macrophage mannose receptor 1 (MRC1) (Homo sapiens, UniProt P22897).
T2 sequence (P22897 19-1456): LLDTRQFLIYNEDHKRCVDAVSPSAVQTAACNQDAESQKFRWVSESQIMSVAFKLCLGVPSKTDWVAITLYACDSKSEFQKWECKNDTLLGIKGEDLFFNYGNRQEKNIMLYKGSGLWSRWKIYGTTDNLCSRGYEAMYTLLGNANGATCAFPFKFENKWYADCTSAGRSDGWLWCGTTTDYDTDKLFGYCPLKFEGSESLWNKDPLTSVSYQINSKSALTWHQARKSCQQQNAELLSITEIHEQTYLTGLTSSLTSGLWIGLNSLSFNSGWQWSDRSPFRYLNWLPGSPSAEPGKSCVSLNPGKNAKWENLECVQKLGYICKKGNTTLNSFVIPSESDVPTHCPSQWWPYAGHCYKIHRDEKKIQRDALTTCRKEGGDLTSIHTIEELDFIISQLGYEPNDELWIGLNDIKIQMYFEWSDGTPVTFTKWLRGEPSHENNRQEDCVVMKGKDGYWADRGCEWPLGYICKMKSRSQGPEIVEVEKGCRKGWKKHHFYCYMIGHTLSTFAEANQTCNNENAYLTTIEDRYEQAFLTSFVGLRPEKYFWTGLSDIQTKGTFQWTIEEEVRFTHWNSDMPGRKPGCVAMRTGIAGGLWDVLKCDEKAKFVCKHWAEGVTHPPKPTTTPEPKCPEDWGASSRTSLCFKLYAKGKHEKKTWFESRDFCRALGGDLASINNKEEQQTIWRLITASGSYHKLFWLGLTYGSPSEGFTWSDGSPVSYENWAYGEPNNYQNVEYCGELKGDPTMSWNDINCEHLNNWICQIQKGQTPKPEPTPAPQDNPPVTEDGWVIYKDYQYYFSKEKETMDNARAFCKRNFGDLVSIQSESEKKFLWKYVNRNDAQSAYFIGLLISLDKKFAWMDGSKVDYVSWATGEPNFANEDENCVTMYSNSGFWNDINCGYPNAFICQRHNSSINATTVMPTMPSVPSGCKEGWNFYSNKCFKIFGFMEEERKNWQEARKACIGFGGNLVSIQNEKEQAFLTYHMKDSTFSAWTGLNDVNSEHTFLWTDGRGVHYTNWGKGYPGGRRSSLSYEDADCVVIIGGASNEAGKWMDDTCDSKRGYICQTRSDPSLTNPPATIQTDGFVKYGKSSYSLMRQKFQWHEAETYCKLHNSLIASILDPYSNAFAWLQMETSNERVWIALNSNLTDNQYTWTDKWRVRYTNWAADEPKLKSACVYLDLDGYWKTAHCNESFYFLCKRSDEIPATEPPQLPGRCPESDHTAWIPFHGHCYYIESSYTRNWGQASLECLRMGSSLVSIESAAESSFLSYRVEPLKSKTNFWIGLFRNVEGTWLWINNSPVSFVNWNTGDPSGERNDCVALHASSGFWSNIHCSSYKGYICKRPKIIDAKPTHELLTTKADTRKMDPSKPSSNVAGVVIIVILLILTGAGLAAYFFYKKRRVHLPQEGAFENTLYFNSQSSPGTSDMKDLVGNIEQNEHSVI
Description: MRC1 competition binding assay with Eu-labeled mannosylated-BSA (Methods E and F). The conditions noted are these: Method F: MRC1 assay in a 384-well plate; read-out: MRC1 Binding IP‡. As for the experimental part: Human macrophage mannose receptor 1 (MRC1) Binding Assays were performed as follows.
The competition binding assay for MRC1 utilized a ligand, mannosylated-BSA labeled with the DELFIA Eu-N1-ITC reagent, as reported in the literature. Assay was performed either in a 96-well plate with 100 μL well volume (Method E) or in a 384-well plate with 25 μL well volume (Method F). […] The antibody was incubated in the plate for 1 hr at room temperature with shaking. The plate was washed with wash buffer 3-5 times followed by addition of MRC1 (2 ng/μl final concentration) in PBS containing 1% stabilizer BSA. The plate was incubated at room temperature with gentle shaking for 1 hr. The plate was washed three times with wash buffer. The IOC molecules in 12.5 μL (or 50 μL depending on plate format) buffer at appropriate concentrations were added followed by 12.5 μL (or 50 μL) Eu-mannosylated-BSA (0.1 nM final concentration) in 50 mM Tris, pH 7.5 containing 100 mM NaCl, 5 mM CaCl2, 1 mM MgCl2 and 0.2% stabilizer BSA. The plate was incubated for 2 hrs at room temperature with shaking followed by washing three times with wash buffer. Perkin Elmer Eu-inducer reagent was added and incubated for 30 min at room temperature prior to detection of the Eu signal (Excitation=340 nm: Emission=615 nm).

T1 sequence (P06213 28-758 limits assumed): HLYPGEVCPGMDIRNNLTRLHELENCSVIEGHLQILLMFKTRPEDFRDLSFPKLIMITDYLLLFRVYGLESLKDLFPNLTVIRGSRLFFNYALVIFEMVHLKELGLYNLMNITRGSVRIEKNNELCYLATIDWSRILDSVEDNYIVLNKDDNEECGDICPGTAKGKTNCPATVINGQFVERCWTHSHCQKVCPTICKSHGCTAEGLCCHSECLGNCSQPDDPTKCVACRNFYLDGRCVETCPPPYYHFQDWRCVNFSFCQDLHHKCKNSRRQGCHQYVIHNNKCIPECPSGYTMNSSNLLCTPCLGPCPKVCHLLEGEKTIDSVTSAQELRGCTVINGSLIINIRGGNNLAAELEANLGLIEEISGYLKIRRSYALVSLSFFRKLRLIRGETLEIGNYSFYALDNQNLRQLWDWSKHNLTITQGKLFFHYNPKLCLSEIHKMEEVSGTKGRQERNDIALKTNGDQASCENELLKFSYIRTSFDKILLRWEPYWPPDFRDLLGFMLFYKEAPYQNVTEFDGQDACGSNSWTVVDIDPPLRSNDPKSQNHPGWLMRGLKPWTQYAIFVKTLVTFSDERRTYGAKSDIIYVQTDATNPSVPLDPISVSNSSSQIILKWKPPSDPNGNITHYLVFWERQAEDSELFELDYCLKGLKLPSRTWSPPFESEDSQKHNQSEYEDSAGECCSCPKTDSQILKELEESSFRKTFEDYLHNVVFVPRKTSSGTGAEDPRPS
T1 sequence (P06213 763-1382 partner limits assumed): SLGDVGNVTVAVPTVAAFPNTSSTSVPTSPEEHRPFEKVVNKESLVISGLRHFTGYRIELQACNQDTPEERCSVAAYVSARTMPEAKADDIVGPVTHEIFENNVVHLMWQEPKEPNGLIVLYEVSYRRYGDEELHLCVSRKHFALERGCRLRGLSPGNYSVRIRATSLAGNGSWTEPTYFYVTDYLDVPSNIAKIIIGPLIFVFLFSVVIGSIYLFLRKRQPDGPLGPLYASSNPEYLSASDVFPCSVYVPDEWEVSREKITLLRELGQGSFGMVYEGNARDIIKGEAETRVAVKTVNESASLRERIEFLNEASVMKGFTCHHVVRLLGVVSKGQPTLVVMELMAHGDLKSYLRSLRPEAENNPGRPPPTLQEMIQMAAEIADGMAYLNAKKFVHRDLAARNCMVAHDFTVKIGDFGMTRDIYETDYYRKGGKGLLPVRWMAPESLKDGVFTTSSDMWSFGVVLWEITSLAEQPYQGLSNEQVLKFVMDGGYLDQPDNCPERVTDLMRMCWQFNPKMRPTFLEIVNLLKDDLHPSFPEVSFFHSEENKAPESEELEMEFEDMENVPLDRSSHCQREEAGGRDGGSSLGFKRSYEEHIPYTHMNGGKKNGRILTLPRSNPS

`CC[C@H](C)[C@H](NC(=O)CN)C(=O)N[C@H](C(=O)N[C@@H](CCC(=O)O)C(=O)N[C@@H](CCC(N)=O)C(=O)N[C@H]1CSSC[C@@H]2NC(=O)[C@H]([C@@H](C)CC)NC(=O)[C@H](CO)NC(=O)[C@H]([C@@H](C)O)NC(=O)[C@H](CSSC[C@H](NC(=O)[C@H](CC(C)C)NC(=O)[C@H](Cc3c[nH]cn3)NC(=O)[C@H](CCC(N)=O)NC(=O)[C@H](CC(N)=O)NC(=O)[C@@H](NC(=O)[C@H](Cc3ccccc3)NC(=O)CCCCC(=O)N(CC(=O)NCCO[C@H]3O[C@H](CO)[C@@H](O)[C@H](O)[C@@H]3O)CC(=O)N(CCO[C@H]3O[C@H](CO)[C@@H](O)[C@H](O)[C@@H]3O)CCO[C@H]3O[C@H](CO)[C@@H](O)[C@H](O)[C@@H]3O)C(C)C)C(=O)NCC(=O)N[C@@H](CO)C(=O)N[C@@H](Cc3c[nH]cn3)C(=O)N[C@@H](CC(C)C)C(=O)N[C@@H](C(C)C)C(=O)N[C@@H](CCC(=O)O)C(=O)N[C@@H](C)C(=O)N[C@@H](CC(C)C)C(=O)N[C@@H](Cc3ccc(O)cc3)C(=O)N[C@@H](CC(C)C)C(=O)N[C@@H](C(C)C)C(=O)N[C@H](C(=O)NCC(=O)N[C@@H](CCC(=O)O)C(=O)N[C@@H](CCCNC(=N)N)C(=O)NCC(=O)N[C@@H](Cc3ccccc3)C(=O)N[C@@H](Cc3ccccc3)C(=O)N[C@@H](Cc3ccc(O)cc3)C(=O)N[C@H](C(=O)N3CCC[C@H]3C(=O)N[C@@H](CCCCNC(=O)CCCCC(=O)N(CC(=O)NCCO[C@H]3O[C@H](CO)[C@@H](O)[C@H](O)[C@@H]3O)CC(=O)N(CCO[C@H]3O[C@H](CO)[C@@H](O)[C@H](O)[C@@H]3O)CCO[C@H]3O[C@H](CO)[C@@H](O)[C@H](O)[C@@H]3O)C(=O)N[C@H](C(=O)O)[C@@H](C)O)[C@@H](C)O)CSSC[C@@H](C(=O)N[C@@H](CC(N)=O)C(=O)O)NC(=O)[C@H](Cc3ccc(O)cc3)NC(=O)[C@H](CC(N)=O)NC(=O)[C@H](CCC(=O)O)NC(=O)[C@H](CC(C)C)NC(=O)[C@H](CCC(N)=O)NC(=O)[C@H](Cc3ccc(O)cc3)NC(=O)[C@H](CC(C)C)NC(=O)[C@H](CO)NC2=O)NC1=O)C(C)C` [IOC-61]: on human IR(B), the EC50 came out at 1.13 nM. For the same molecule, the IC50 in test [1] amounted to 17.9 nM.

Turning to `CC[C@H](C)[C@H](NC(=O)CNC(=O)CCCCC(=O)N(CC(=O)NCCO[C@H]1O[C@H](CO)[C@@H](O)[C@H](O)[C@@H]1O)CC(=O)N(CCO[C@H]1O[C@H](CO)[C@@H](O)[C@H](O)[C@@H]1O)CCO[C@H]1O[C@H](CO)[C@@H](O)[C@H](O)[C@@H]1O)C(=O)N[C@H](C(=O)N[C@@H](CCC(=O)O)C(=O)N[C@@H](CCC(N)=O)C(=O)N[C@H]1CSSC[C@@H]2NC(=O)[C@H]([C@@H](C)CC)NC(=O)[C@H](CO)NC(=O)[C@H]([C@@H](C)O)NC(=O)[C@H](CSSC[C@H](NC(=O)[C@H](CC(C)C)NC(=O)[C@H](Cc3c[nH]cn3)NC(=O)[C@H](CCC(N)=O)NC(=O)[C@H](CC(N)=O)NC(=O)[C@@H](NC(=O)[C@@H](N)Cc3ccccc3)C(C)C)C(=O)NCC(=O)N[C@@H](CO)C(=O)N[C@@H](Cc3c[nH]cn3)C(=O)N[C@@H](CC(C)C)C(=O)N[C@@H](C(C)C)C(=O)N[C@@H](CCC(=O)O)C(=O)N[C@@H](C)C(=O)N[C@@H](CC(C)C)C(=O)N[C@@H](Cc3ccc(O)cc3)C(=O)N[C@@H](CC(C)C)C(=O)N[C@@H](C(C)C)C(=O)N[C@H](C(=O)NCC(=O)N[C@@H](CCC(=O)O)C(=O)N[C@@H](CCCNC(=N)N)C(=O)NCC(=O)N[C@@H](Cc3ccccc3)C(=O)N[C@@H](Cc3ccccc3)C(=O)N[C@@H](Cc3ccc(O)cc3)C(=O)N[C@H](C(=O)N3CCC[C@H]3C(=O)N[C@@H](CCCCNC(=O)CCCCC(=O)N(CC(=O)NCCO[C@H]3O[C@H](CO)[C@@H](O)[C@H](O)[C@@H]3O)CC(=O)N(CCO[C@H]3O[C@H](CO)[C@@H](O)[C@H](O)[C@@H]3O)CCO[C@H]3O[C@H](CO)[C@@H](O)[C@H](O)[C@@H]3O)C(=O)N[C@H](C(=O)O)[C@@H](C)O)[C@@H](C)O)CSSC[C@@H](C(=O)N[C@@H](CC(N)=O)C(=O)O)NC(=O)[C@H](Cc3ccc(O)cc3)NC(=O)[C@H](CC(N)=O)NC(=O)[C@H](CCC(=O)O)NC(=O)[C@H](CC(C)C)NC(=O)[C@H](CCC(N)=O)NC(=O)[C@H](Cc3ccc(O)cc3)NC(=O)[C@H](CC(C)C)NC(=O)[C@H](CO)NC2=O)NC1=O)C(C)C` [IOC-60], the EC50 on human IR(B) was determined as 1.85 nM. Also, the IC50 in test [1] is 33.1 nM.

For the molecule `CC[C@H](C)[C@H](NC(=O)CN)C(=O)N[C@H](C(=O)N[C@@H](CCC(=O)O)C(=O)N[C@@H](CCC(N)=O)C(=O)N[C@H]1CSSC[C@@H]2NC(=O)[C@H]([C@@H](C)CC)NC(=O)[C@H](CO)NC(=O)[C@H]([C@@H](C)O)NC(=O)[C@H](CSSC[C@H](NC(=O)[C@H](CC(C)C)NC(=O)[C@H](Cc3c[nH]cn3)NC(=O)[C@H](CCC(N)=O)NC(=O)[C@H](CC(N)=O)NC(=O)[C@@H](NC(=O)[C@H](Cc3ccccc3)NC(=O)CCCCC(=O)N(CC(=O)NCCO[C@@H]3O[C@@H](C)[C@@H](O)[C@@H](O)[C@@H]3O)CC(=O)N(CCO[C@H]3O[C@H](CO)[C@@H](O)[C@H](O)[C@@H]3O)CCO[C@H]3O[C@H](CO)[C@@H](O)[C@H](O)[C@@H]3O)C(C)C)C(=O)NCC(=O)N[C@@H](CO)C(=O)N[C@@H](Cc3c[nH]cn3)C(=O)N[C@@H](CC(C)C)C(=O)N[C@@H](C(C)C)C(=O)N[C@@H](CCC(=O)O)C(=O)N[C@@H](C)C(=O)N[C@@H](CC(C)C)C(=O)N[C@@H](Cc3ccc(O)cc3)C(=O)N[C@@H](CC(C)C)C(=O)N[C@@H](C(C)C)C(=O)N[C@H](C(=O)NCC(=O)N[C@@H](CCC(=O)O)C(=O)N[C@@H](CCCNC(=N)N)C(=O)NCC(=O)N[C@@H](Cc3ccccc3)C(=O)N[C@@H](Cc3ccccc3)C(=O)N[C@@H](Cc3ccc(O)cc3)C(=O)N[C@H](C(=O)N3CCC[C@H]3C(=O)N[C@@H](CCCCNC(=O)CCCCC(=O)N(CC(=O)NCCO[C@@H]3O[C@@H](C)[C@@H](O)[C@@H](O)[C@@H]3O)CC(=O)N(CCO[C@H]3O[C@H](CO)[C@@H](O)[C@H](O)[C@@H]3O)CCO[C@H]3O[C@H](CO)[C@@H](O)[C@H](O)[C@@H]3O)C(=O)N[C@H](C(=O)O)[C@@H](C)O)[C@@H](C)O)CSSC[C@@H](C(=O)N[C@@H](CC(N)=O)C(=O)O)NC(=O)[C@H](Cc3ccc(O)cc3)NC(=O)[C@H](CC(N)=O)NC(=O)[C@H](CCC(=O)O)NC(=O)[C@H](CC(C)C)NC(=O)[C@H](CCC(N)=O)NC(=O)[C@H](Cc3ccc(O)cc3)NC(=O)[C@H](CC(C)C)NC(=O)[C@H](CO)NC2=O)NC1=O)C(C)C` [IOC-62], the EC50 on human IR(B) was 0.77 nM. In addition, in test [1], the IC50 is 5.12 nM.
